± gives the standard deviation of the averaged measurements.
Test system: HepaRG
Experiment: LDH release cytotoxicity, % of total lysis control; higher = more cytotoxic
Details: 48 h
Summary of the method: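 Single-lot HepaRG cells on collagen I-coated 96-well plates were exposed for 48 h in duplicate, in serum-free induction medium with 0.5% DMSO, to eight-point half-log series (test chemicals top 100 µM). Total lysis wells received 0.1% Triton X, and LDH leakage into 50 µL spent medium was read as resorufin fluorescence (CytoTox-ONE, Tecan Safire). Percent cytotoxicity was normalized to on-plate vehicle and total lysis controls and averaged over the duplicates.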

Structure (SMILES)	LDH release cytotoxicity (0.03162 µM) [%]	LDH release cytotoxicity (0.1 µM) [%]	LDH release cytotoxicity (0.3162278 µM) [%]	LDH release cytotoxicity (1 µM) [%]	LDH release cytotoxicity (3.16228 µM) [%]	LDH release cytotoxicity (10 µM) [%]	LDH release cytotoxicity (31.6228 µM) [%]	LDH release cytotoxicity (100 µM) [%]	LDH release cytotoxicity (0.031623 µM) [%]	LDH release cytotoxicity (0.316228 µM) [%]
O=C(Oc1ccc(Br)cc1)N1CCN2CCC1CC2	-1.87 ± 0.45	-3.23 ± 2.2	-0.984 ± 0.16	-1.45 ± 0.27	-1.43 ± 0.56	-1.29 ± 0.41	-0.718 ± 0.41	0.972 ± 0.95		
CC(C)(C)c1csc(-c2cc3cc(OCc4ccccc4CC(=O)O)ccc3o2)n1		-2.14 ± 0.54		-2.18 ± 0.68	-2.37 ± 0.089	-3.649 ± 0.015	-2.7 ± 0.72	64 ± 7	1.06 ± 0.28	-2.66 ± 0.65
CC(C)(O)c1ccc(CNC(=O)c2cccnc2Oc2ccc(F)cc2)cc1	-1.22 ± 0.93	-1.42 ± 0.31	-0.81 ± 0.042	-1.975 ± 0.0046	-0.936 ± 0.39	-0.88 ± 0.74	-1.34 ± 0.14	-1.94 ± 0.87		
CC(C)c1nnc2ccc(-c3ocnc3-c3cc(F)ccc3F)cn12	-1.28 ± 0.22	-1.01 ± 0.88	-1.08 ± 0.44	-1.31 ± 0.37	-2.01 ± 0.34	-1.36 ± 0.45	-2.04 ± 0.03	5.98 ± 0.59		
CC(Oc1ccc(CNC(=O)c2cccnc2Oc2ccc3c(c2)OCO3)c(F)c1)C(=O)O (centres undefined)	0.432 ± 0.73	-0.868 ± 0.12	-1.04 ± 0.64	-1.35 ± 0.25	-1.24 ± 0.19	-0.8947 ± 0.0016	-0.798 ± 0.6	-0.624 ± 0.43		
CC1(C)NC(=O)N(c2ccc([N+](=O)[O-])c(C(F)(F)F)c2)C1=O	-1.893 ± 0.013	-2.02 ± 0.6	-1.85 ± 0.036	-2.09 ± 0.12	-2 ± 0.71	-1.72 ± 0.061	-1.66 ± 0.7	-0.93 ± 0.35		
Cc1oc2c(NC(=O)c3c(Cl)cccc3Cl)cccc2c1C(C)(C)O	-1.37 ± 0.53	-0.99 ± 1.4	-1.56 ± 1.6	-1.94 ± 1.6	-2.03 ± 0.99	-0.5 ± 0.33	13.1 ± 1.4	33.7 ± 0.42		
Cc1oc(-c2ccccc2)nc1CCOc1cccc2c1ccn2CCC(=O)O	-0.496 ± 0.49	-1.56 ± 0.14	-1.37 ± 1.4	-1.71 ± 0.068	-1.03 ± 0.61	-0.899 ± 0.13	-0.577 ± 0.44	45.3 ± 5.2		
Cc1cc(NC(=O)C(=O)O)cc(C)c1Oc1ccc(O)c2c1CCC2	0.0573 ± 0.64	-0.831 ± 0.11	-0.658 ± 0.17	-1.32 ± 0.24	-1.06 ± 0.025	-0.633 ± 0.77	1.17 ± 2.3	0.214 ± 0.025		
C=C(C)CN(CC)c1c([N+](=O)[O-])cc(C(F)(F)F)cc1[N+](=O)[O-]	0.288 ± 0.69	-0.786 ± 0.58	-0.775 ± 0.099	-1.3 ± 0.21	-0.72 ± 0.57	-0.92 ± 0.68	-0.439 ± 0.064	0.333 ± 0.038		
CCN(CC)CCNc1ccc(CNC=O)c2sc3ccc(OC)cc3c(=O)c12	-0.844 ± 1.3	-1.66 ± 0.14	-0.986 ± 0.35	-1.41 ± 0.78	1.37 ± 0.86	2.31 ± 0.54	5.144 ± 0.031	81.1 ± 6.4		
CCN1CCC2(CC1)COc1cc3c(cc12)N(C(=O)c1ccc(-c2ccc(-c4nnc(C)o4)cc2C)cc1)CC3	-2.84 ± 1.3	-2.94 ± 0.81	-1.93 ± 1.5	-3.08 ± 0.76	-3.21 ± 1.3	-2.54 ± 0.92	-2.8 ± 0.8	-0.687 ± 1.4		
CNC(=O)C1OC(n2cnc3c(NCc4cc(Cl)ccc4OCc4cc(C)no4)ncnc32)C(O)C1N (centres undefined)	-1.47 ± 0.23	-1.47 ± 1.1	-1.92 ± 0.35	-1.97 ± 0.043	-1.57 ± 0.1	-1.54 ± 0.46	-0.977 ± 0.33	0.0796 ± 0.85		
CNC1CCC(c2ccc(Cl)c(Cl)c2)c2ccc(S(N)(=O)=O)cc21 (centres undefined)	-1.64 ± 0.43	-2.15 ± 0.55	-1.81 ± 0.055	-1.88 ± 0.57	-1.12 ± 0.32	-0.337 ± 0.06	15 ± 0.65	81.4 ± 3.4		
CNCc1cc(F)ccc1Oc1ccc(Cl)c(Cl)c1	-11 ± 1.1	-10.04 ± 0.031	-10.6 ± 1.2	-10.4 ± 0.19	-11.2 ± 0.63	-10 ± 1.1	-8.03 ± 1.4	75.6 ± 5.6		
COc1cc(S(=O)(=O)O)c(C)cc1N=Nc1c(O)ccc2cc(S(=O)(=O)O)ccc12	-0.0925 ± 0.66	-0.495 ± 0.4	-0.745 ± 0.75	-1.36 ± 1.1	-1.42 ± 0.71	-1.6 ± 0.25	-1.96 ± 0.065	-2.81 ± 0.42		
COc1ccc(OC(F)(F)F)cc1CNC1CCCNC1c1ccccc1 (centres undefined)	-0.49 ± 0.062	-0.83 ± 0.43	-1.38 ± 0.18	-1.02 ± 1.2	-1.52 ± 1.2	-0.56 ± 0.84	5.16 ± 0.72	88 ± 10		
COc1cc(C=O)cc2c1C(COC(N)=O)C1(OC(C)=O)ON2CC2C1N2C(C)=O (centres undefined)	-0.71 ± 0.46	-0.654 ± 0.1	1.14 ± 1.2	17.5 ± 1.6	62.9 ± 2.6	67.8 ± 2.4	73 ± 2.2	73.3 ± 2.3		
COCCOc1cc2cc(C(=O)NC3CCN(C(C)C)CC3)n(CC(=O)Nc3ccc(Cl)cn3)c2cn1	-0.433 ± 0.89	-0.956 ± 0.47	-0.802 ± 0.14	-1.56 ± 0.7	-0.955 ± 0.44	-0.194 ± 0.17	13.4 ± 1	96.77 ± 0.093		
CSc1ccc(Oc2ccc(S(N)(=O)=O)cc2CN(C)C)cc1C	-1.53 ± 0.56	-2.12 ± 0.38	-3.24 ± 1	-3.17 ± 0.95	-2.65 ± 0.17	-1.44 ± 0.31	-1.38 ± 0.35	13.7 ± 1.8		
O=C(NC(c1ccccc1)C1CCCCN1)c1cccc(C(F)(F)F)c1Cl (centres undefined)	-1.29 ± 1.3	-1.57 ± 0.071	-0.0611 ± 0.068	-1.79 ± 0.54	-0.61 ± 1.2	0.734 ± 0.85	24.2 ± 1.3	86.2 ± 3.2		
NC(=O)N(O)C1C=CC(Oc2cccc(Oc3ccc(F)cc3)c2)C1 (centres undefined)	-0.313 ± 0.089	-0.862 ± 0.21	-1.12 ± 0.51	-0.265 ± 0.5	-0.557 ± 0.086	-1.09 ± 0.79	1.56 ± 0.69	19.5 ± 2.4		
NC(=O)N1C(=O)C(C(=O)c2cc(Cl)cs2)c2cc(F)c(Cl)cc21 (centres undefined)	-0.6756 ± 0.0047	-0.635 ± 1.4	-0.381 ± 0.96	-0.761 ± 0.069	-0.334 ± 0.65	1.12 ± 0.053	64.6 ± 1	50.6 ± 8.4		
NCC1(Cc2noc(=O)[nH]2)CCCCC1	-1.45 ± 0.35	-1.66 ± 0.47	-1.14 ± 0.84	-1.29 ± 0.97	-1.26 ± 0.87	-1.72 ± 0.14	-2.07 ± 0.18	17.4 ± 1.5		
COC(=O)C(C)Oc1ccc(Oc2ccc(Cl)cc2Cl)cc1 (racemic) [Methyl (RS)-2-[4-(2,4-dichlorophenoxy)phenoxy]propionate]	-0.971 ± 1.5	-1.59 ± 0.12	-1.59 ± 1.4	-2.24 ± 0.54	-1.38 ± 0.41	-1.28 ± 0.4	-1.8 ± 0.099	-0.104 ± 0.18		
CC(O)CN(CCN(CC(C)O)CC(C)O)CC(C)O (centres undefined) [1,1',1'',1'''-(Ethanediylnitrilo)tetrakis(2-propanol)]	-1.14 ± 0.41	-1.86 ± 1.1	-1.7 ± 0.17	-2.22 ± 0.98	-2.41 ± 0.2	-1.35 ± 1.4	5.57 ± 1.1	18.7 ± 1.4		
C[N+]1(C)CCCCC1 [1,1-Dimethylpiperidinium chloride]	-1.22 ± 0.36	-0.187 ± 0.78	-1.4 ± 0.52	-1.35 ± 0.62	0.248 ± 0.65	0.722 ± 0.62	-0.465 ± 0.11	0.762 ± 0.26		
c1ccc2[nH]nnc2c1 [1,2,3-Benzotriazole]	-1.49 ± 0.2	-1.03 ± 0.94	-1.12 ± 0.52	-1.12 ± 0.55	-1.23 ± 0.65	-0.765 ± 0.061	0.381 ± 0.99	1.81 ± 0.42		

Source: the supplement of paper PMC7840683
